Experimental data published in patent US5484803A, “Transcutaneous in vivo activation of photosensitive agents in blood” (priority 1995, dated 1996).
Several values for one entry are separate records, joined by “and”; a condition that tells them apart may be missing. Equal entries are not always repeated.

Legend:
[1] = Body and organ weights and gross autopsy two weeks post-treatment; type: in vivo, Balb/c mice
Description: (§1) Six Balb/c mice (22±1 g weight) were prepared as described above. Five mice were injected twice (24 hour interval) with BPD from DMSO stock (not liposomal BPD) and exposed to light 1 hour after the injection. One mouse was not injected but was exposed to light (light-only control). During the first treatment the mice were injected with 15 μg BPD/mouse in 200 μl of PBS. During the second treatment the mice were injected with 20 μg BPD/mouse (0.9 mg/kg). A single mouse was used as a control for both treatments.
(§2) Immediately post-injection (on both occasions) the animals were kept for 1 hour in the dark and then were placed in individual plastic containers (9×4×5 cm), which were placed in the light box and exposed to light. The individual mice were removed from the light box at different intervals: 15, 30, 45, 60 and 75 min, respectively. The light doses delivered at the surface of the skin were 27, 54, 81, 108 and 135 J/cm^2, respectively. On the second occasion the same light doses were used; however, mice receiving higher light doses on day 1 received lower doses on day 2. The control mouse was exposed to light for 60 min on both occasions. During light exposure, the mice were constantly observed for signs of discomfort or itching. After the second light exposure, the mice were observed daily for a period of 2 weeks for appearance of the skin and general pattern of behavior.
(§3) Two weeks post-treatment blood samples were obtained from each mouse by a heart puncture, under halothane anesthesia. Then the mice were sacrificed and autopsied. Their spleen, liver and kidneys were weighed.

mouse blood [2] = experiment: Blood parameters immediately after light exposure (acute effect); type: in vivo, mice
Description: (§4) Blood Tests: Blood was drawn into syringes containing 50 μl of heparin (1000 units/ml saline). Blood samples (0.45 ml) from at least 1 mouse per time point were sent to the Diagnostic Laboratory at the University Hospital, University of British Columbia site, for analysis by a Coulter Counter. Blood morphology was determined on blood films prepared from selected samples by a laboratory technologist.
Fourteen mice (weight 22±1 g) were used in this study. Twelve mice were injected with 20 μg (0.9 mg/kg) of liposomal BPD (in 200 μl) and kept in the dark for 1 hour before exposure to light. The mice each were exposed to light for 30 min, 1 hour or 1.5 hours, which delivered light doses to the skin surface of 54, 108 and 162 J/cm^2, respectively. Immediately after light exposure, blood samples were obtained. At the corresponding times, blood samples were obtained from two mice injected with BPD, but not exposed to light. Two additional mice were tested one hour after injection.

[3] = tested on: free viruses and virally infected cells; details: with red light (400-900 nm); spiked blood products and whole blood from viremic cats; cited from earlier work
mice skin = experiment: Skin photosensitivity and skin changes, transcutaneous activation study; type: in vivo
[4] = tested on: tumor tissue, including leukemic cells; details: cited from earlier work
P815 cells = experiment: Surviving clonogenic P815 cells in mouse blood; type: in vivo, DBA/2 mice; details: average of 3 mice/group
Description: Male mature DBA/2 and Balb/c mice were injected intravenously with P815 and L1210 cells, respectively, preincubated for 1 hour with BPD (liposomal) at 100 ng/ml. Immediately before animal injection, an additional 2 μg of BPD was added to the syringes containing cells. […] One group of mice (shaved and depilated) was exposed immediately to red light (600-900 nm) in the light box for 1.5 hours (162 J/cm^2); the other group was kept in the dark as the control.
Immediately after exposure to light, blood samples were obtained by a heart puncture under halothane anesthesia. The concentration of BPD in plasma of light-exposed and control mice was determined by fluorescence. The number of clonogenic tumor cells in mouse blood was determined by culturing blood samples in culture medium supplemented with 10% bovine serum, using a limiting dilution assay protocol.

mouse blood [5] = experiment: Blood cell morphology 2 weeks post-treatment; type: in vivo, Balb/c mice
Description: as §4, §1, §2, §3

skin = experiment: Skin changes and general behavior after treatment (Example 5 and preceding examples); type: in vivo, mice; details: maximum observation period 2 weeks
[6] = Drug + Light, individual mice, 2 weeks post-treatment
[7] = 0.9 mg/kg liposomal BPD, 54-162 J/cm^2
[8] = BPD 0.87 mg/kg, light 0, 1 1/2 h post inj.
[9] = BPD 0.87 mg/kg, light 0, 2 1/2 h post inj.
[10] = BPD 0.87 mg/kg, light 0, 1 h post inj.
[11] = BPD 0.93 mg/kg, light 0, 2 h post inj.
[12] = BPD 0.93 mg/kg, light 162 J/cm^2, 2 1/2 h post inj.
[13] = BPD 0.95 mg/kg, light 54 J/cm^2, 1 1/2 h post inj.
[14] = BPD 0.95 mg/kg, light 108 J/cm^2, 2 h post inj.

benzoprophyrin derivative monoacid ring A [BPD]
gross morphology and weights of internal organs ([1]; 2 weeks after double treatment, liver, spleen, kidneys): normal
toxicity (gross examination of liver, spleen, kidneys; blood parameters) ([1]; 2 weeks post-treatment): no toxicity was detected
Kidneys weight [1, 6]: 0.172 g and 0.343 g and 0.380 g and 0.396 g and 0.310 g
Liver weight [1, 6]: 1.105 g and 1.190 g and 1.208 g and 1.348 g and 0.958 g
Spleen weight [1, 6]: 0.077 g and 0.106 g and 0.094 g and 0.108 g and 0.078 g
Total Body Weight [1, 6]: 22 g and 23 g and 24 g and 25 g and 21 g
acute effect on blood parameters (mouse blood [2]; [7]): no acute effect on blood parameters was observed
HB (mouse blood [2]; [8]): 117 g/L
Hct (mouse blood [2]; [8]): 0.329
MCV (mouse blood [2]; [8]): 48.7 fL
PLT (mouse blood [2]; [8]): 428 10^6 /ml
RBC (mouse blood [2]; [8]): 6.77 10^9 /ml
WBC (mouse blood [2]; [8]): 4.4 10^6 /ml
HB (mouse blood [2]; [9]): 129 g/L
Hct (mouse blood [2]; [9]): 0.372
MCV (mouse blood [2]; [9]): 48.5 fL
PLT (mouse blood [2]; [9]): 447 10^6 /ml
RBC (mouse blood [2]; [9]): 7.68 10^9 /ml
WBC (mouse blood [2]; [9]): 3.9 10^6 /ml
HB (mouse blood [2]; [10]): 124 g/L
Hct (mouse blood [2]; [10]): 0.368
MCV (mouse blood [2]; [10]): 48.4 fL
PLT (mouse blood [2]; [10]): 608 10^6 /ml
RBC (mouse blood [2]; [10]): 7.61 10^9 /ml
WBC (mouse blood [2]; [10]): 5.5 10^6 /ml
HB (mouse blood [2]; [11]): 129 g/L
Hct (mouse blood [2]; [11]): 0.382
MCV (mouse blood [2]; [11]): 49.1 fL
PLT (mouse blood [2]; [11]): 475 10^6 /ml
RBC (mouse blood [2]; [11]): 7.79 10^9 /ml
WBC (mouse blood [2]; [11]): 11.4 10^6 /ml
HB (mouse blood [2]; [12]): 116 g/L
Hct (mouse blood [2]; [12]): 0.353
MCV (mouse blood [2]; [12]): 49.2 fL
PLT (mouse blood [2]; [12]): 506 10^6 /ml
RBC (mouse blood [2]; [12]): 7.17 10^9 /ml
WBC (mouse blood [2]; [12]): 4.9 10^6 /ml
HB (mouse blood [2]; [13]): 127 g/L
Hct (mouse blood [2]; [13]): 0.363
MCV (mouse blood [2]; [13]): 49.9 fL
PLT (mouse blood [2]; [13]): 613 10^6 /ml
RBC (mouse blood [2]; [13]): 7.28 10^9 /ml
WBC (mouse blood [2]; [13]): 7.0 10^6 /ml
HB (mouse blood [2]; [14]): 131 g/L
Hct (mouse blood [2]; [14]): 0.378
MCV (mouse blood [2]; [14]): 50.1 fL
PLT (mouse blood [2]; [14]): 440 10^6 /ml
RBC (mouse blood [2]; [14]): 7.53 10^9 /ml
WBC (mouse blood [2]; [14]): 8.5 10^6 /ml
elimination of free viruses and virally infected cells [3]: effective in eliminating both free viruses and virally infected cells
skin photosensitivity (mice skin; [7]): did not cause skin photosensitivity
changes of the skin (mice skin; immediately or during the 2 week post-exposure period, 0.9 mg/kg, 30 mW/cm^2): no changes of the skin were observed
affinity for tumor tissue versus normal cells [4]: higher affinity for tumor tissue, including leukemic cells, than for normal non-malignant cells
Surviving cells in blood (P815 cells; Dark control): 50 P815 cells/2 ml blood/mouse
Surviving cells in blood (P815 cells; Light exposed (162 J/cm^2)): 8 P815 cells/2 ml blood/mouse
Monocytes (mouse blood [5]; mouse 1, light 27 then 135 J/cm^2): 1 % WBC
Granulocytes (mouse blood [5]; mouse 1, light 27 then 135 J/cm^2, normal 12-15): 9 % WBC
Lymphocytes (mouse blood [5]; mouse 1, light 27 then 135 J/cm^2, normal 65-85): 90 % WBC
Monocytes (mouse blood [5]; mouse 2, light 54 then 108 J/cm^2): 1 % WBC
Granulocytes (mouse blood [5]; mouse 2, light 54 then 108 J/cm^2, normal 12-15): 11 % WBC
Lymphocytes (mouse blood [5]; mouse 2, light 54 then 108 J/cm^2, normal 65-85): 88 % WBC
Monocytes (mouse blood [5]; mouse 3, light 81 then 81 J/cm^2): 3 % WBC
Granulocytes (mouse blood [5]; mouse 3, light 81 then 81 J/cm^2, normal 12-15): 19 % WBC
Lymphocytes (mouse blood [5]; mouse 3, light 81 then 81 J/cm^2, normal 65-85): 78 % WBC
Monocytes (mouse blood [5]; mouse 4, light 108 then 54 J/cm^2): 2 % WBC
Granulocytes (mouse blood [5]; mouse 4, light 108 then 54 J/cm^2, normal 12-15): 36 % WBC
Lymphocytes (mouse blood [5]; mouse 4, light 108 then 54 J/cm^2, normal 65-85): 62 % WBC
Monocytes (mouse blood [5]; mouse 5, light 135 then 27 J/cm^2): 1 % WBC
Granulocytes (mouse blood [5]; mouse 5, light 135 then 27 J/cm^2, normal 12-15): 7 % WBC
Lymphocytes (mouse blood [5]; mouse 5, light 135 then 27 J/cm^2, normal 65-85): 92 % WBC
skin photosensitivity and change in behavior (skin): neither skin photosensitivity nor change in the behavior of animals were observed
